Reference: ChEMBL document CHEMBL5052846, “Pyridine derivatives as kif18a inhibitors” (2021)

Target: T1, Kinesin-like protein KIF18A (Homo sapiens, UniProt Q8NI77)
T1 sequence (Q8NI77 whole entry): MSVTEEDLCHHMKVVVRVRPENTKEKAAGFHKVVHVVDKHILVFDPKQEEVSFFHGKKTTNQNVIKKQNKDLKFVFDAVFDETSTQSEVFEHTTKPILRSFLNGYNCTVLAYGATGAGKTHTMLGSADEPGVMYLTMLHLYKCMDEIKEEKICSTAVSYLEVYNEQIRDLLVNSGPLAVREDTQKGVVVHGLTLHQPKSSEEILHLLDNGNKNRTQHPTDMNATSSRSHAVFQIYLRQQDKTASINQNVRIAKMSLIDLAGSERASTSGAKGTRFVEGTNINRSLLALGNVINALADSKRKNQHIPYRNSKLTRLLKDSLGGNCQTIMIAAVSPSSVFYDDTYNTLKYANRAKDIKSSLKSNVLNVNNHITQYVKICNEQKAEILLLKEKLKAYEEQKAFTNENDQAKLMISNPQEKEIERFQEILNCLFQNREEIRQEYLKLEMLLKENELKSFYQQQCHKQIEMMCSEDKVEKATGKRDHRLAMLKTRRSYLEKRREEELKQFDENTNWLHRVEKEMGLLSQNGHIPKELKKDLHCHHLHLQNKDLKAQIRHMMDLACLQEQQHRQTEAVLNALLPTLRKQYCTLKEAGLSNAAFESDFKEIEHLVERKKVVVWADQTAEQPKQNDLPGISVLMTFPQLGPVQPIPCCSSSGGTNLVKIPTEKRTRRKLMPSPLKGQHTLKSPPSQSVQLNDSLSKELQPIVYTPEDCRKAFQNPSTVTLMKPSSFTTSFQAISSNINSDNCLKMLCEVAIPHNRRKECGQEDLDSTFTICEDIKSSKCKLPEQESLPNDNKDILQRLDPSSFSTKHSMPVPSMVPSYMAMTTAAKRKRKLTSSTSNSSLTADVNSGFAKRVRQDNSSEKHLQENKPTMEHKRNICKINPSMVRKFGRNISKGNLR
Experiment: Inhibition of recombinant His-tagged human KIF18A (1 to 467 residues) expressed in baculovirus expression system assessed as inhibition of microtubule-stimulated ATPase activity preincubated for 15 mins followed by ATP addition and further incubated for 15 mins and measured after 40 mins by ADP-Glo reagent based assay

**Q.** Which IC50 does the source give for `CC(C)(C)NS(=O)(=O)c1cccc(NC(=O)c2ccc(N3CC[C@@H](O)C3)nc2N2CCC3(CC2)CC3)c1` here?
**A.** Its IC50 is 189 nM.
